Data as given in patent US20090233307A1, “METHODS FOR DETECTION OF SINGLE STRAND BREAKS IN DNA” (The University of North Carolina at Chapel Hill, priority 2008, published 2009).

Key:
[1] = tested on: DT40 cells; test: SSB repair through NAD(P)H depletion, DT40 cells; type: cell-based, chicken; conditions: DT40 cells exposed to MMS
Method: (§1) SSB repair capacity was determined by a real-time colorimetric assay that measures intracellular NAD(P)H levels (Tano et al., DNA Repair, 6, 869-875 (2007)). PARP-1 activation during SSB repair leads to NAD^+ consumption, which can be indirectly monitored through NAD(P)H depletion (Nakamura et al., Nucleic Acids Res., 31, e104 (2003)). Briefly, 5×10^3 cells/well were seeded into a 96-well plate. After a 30 minute incubation period, the cells were treated with 1 mM MMS quickly followed by the addition of a dye containing XTT (Sigma) and 1-methoxy PMS (Sigma). For up to 4 hours, the NAD(P)H-dependent conversion of the XTT tetrazolium salt to a yellow colored formazan dye was measured spectrophotometrically. Decreases in intracellular NAD(P)H levels were determined through comparison of values to those of the PBS control. Established methods for detecting SSBs have not been adequately characterized for pH effects on DNA structure and chemistry and also lack a high specificity for SSBs, primarily because of artifactual SSB formation. […] The accumulation of SSBs leads to PARP-1 over-activation and the consumption of NAD+, which is indirectly monitored in living cells through the measurement of intracellular NAD(P)H depletion using tetrazolium salts, such as XTT, during chemical exposure (Tano et al., DNA Repair, 6, 869-875 (2007)). […]

[2] = tested on: Pol β null cells; test: SSB repair through NAD(P)H depletion, Pol β null cells; type: cell-based, chicken; conditions: Pol β null cells exposed to MMS
Method: as §1

[3] = tested on: DT40 cells; test: Cell death in DT40 cells; type: cell-based; conditions: unpublished data
[4] = tested on: AP sites in genomic DNA exposed to heat/acid conditions; test: OTX optimization for protection of AP sites from alkaline cleavage (alkaline gel electrophoresis); set-up: species or system chicken; conditions: OTX 37° C. 1 hour, denaturation 100 mM NaOH (pH 12.8)
Method: AP sites were produced in stock DT40 DNA through exposure to heat/acid conditions. DT40 DNA was incubated in sodium citrate buffer (10 mM sodium citrate, 10 mM NaH2PO4, 10 mM NaCl pH 5) for 5 minutes at 70° C., followed by rapid chilling on ice to stop the reaction (Nakamura et al., Cancer Res., 58, 222-225 (1998)). Depurinated DNA was collected using Microcon® YM-3 centrifugal filter devices (Amicon Bioseparations). This DNA was then washed several times with HEPES buffer (50 mM, pH 7) supplemented with 1 mM 2,2,6,6-tetramethylpiperidine-N-oxyl (TEMPO). DNA was resuspended in HEPES buffer containing 1 mM TEMPO.
An alkaline gel electrophoresis protocol (AGE) (Drouin et al., in: Technologies for Detection of DNA Damage and Mutations (G. P. Pfeifer, ed.). Plenum Press, New York, N.Y., pp. 37-43 (1996)) with modifications was used to assess SSBs and ALSs in DNA from exposed cells. The 0.7% agarose gel was prepared in gel buffer (50 mM NaCl, 1 mM EDTA, pH 7) and deionized water. After forming, the gel was soaked in mild alkaline running buffer (30 mM NaOH, 1 mM EDTA, pH 12.4) for at least 30 minutes. Equal amounts of DNA (3-5 μg) were incubated for 1 hour at 37° C. in the presence or absence of 30 mM OTX (Aldrich) in 50 mM HEPES buffer. […] Following OTX exposure, the samples were denatured through treatment with an alkaline buffer (100 mM NaOH, 30 mM OTX, 50 mM HEPES, pH 12.8) for 20 minutes at 37° C. Samples then received loading buffer (10 mM NaOH, 95% formamide (Fluka), 0.05% bromophenol blue, 0.05% xylene cyanol) and were loaded onto the agarose gel. The gel was subjected to electrophoresis at a constant voltage (30 V) for 16 hours at 4° C. At the completion of electrophoresis, the gel was placed in neutralization buffer (400 mM Tris, pH 7.5) for 20 minutes at room temperature. […]
With knowledge of optimal AP site cleavage (pH≧12.2) and DNA denaturation (pH≦12.56) conditions, the utility of stabilizing AP sites prior to complete unwinding at high pH was assessed for subsequent gel electrophoresis. […]

[5] = tested on: Chinese hamster ovary (CHO) AA8 cells; test: OTX-coupled comet assay; type: cell-based; conditions: 1 mM MMS 10 minutes
Method: Chinese hamster ovary (CHO) AA8 cells were seeded at a concentration 0.5×10^6 cell/mL into several 10 cm culture dishes with 10 mL of MEM-α media (Gibco) supplemented with 10% fetal bovine serum (heat inactivated; Sigma), 100 μg/mL penicillin, and 100 μg/mL streptomycin. These were allowed to grow for 48 hours at 37° C. and 5% CO2. Culture dishes were about 80-85% confluent at harvest.
Before cells were harvested for use in the comet assay, the lysis solution (2.5 M NaCl, 100 mM Na2-EDTA, 10 mM Trizma, pH 10) was completed with the addition of 10% (v/v) DMSO and 1% (v/v) Triton X-100, mixed thoroughly, and refrigerated at 4° C. A 0.5% solution of low melting point agarose (LMPA) was also prepared and allowed to equilibrate to 37° C. in a water bath. Partially frosted microscope slides, pre-coated several days before with 50 μL of 1% normal melting point agarose (NMPA), were labeled and set aside.
Prior to cell harvest, the media was removed and each dish was washed with 10 mL of 1×PBS. An additional 2 mL of 1×PBS was added to each dish and the cells were harvested using a rubber policeman. Harvested cells were combined into 15 mL centrifuged tubes and gently mixed by pipetting to obtain a homogenous cell sample. The cell count was obtained using a hemacytometer. The volume of cell sample needed to obtain 11,000 cells per slide to be prepared was added to a new 15 mL centrifuge tube and centrifuged for 5 minutes at 1,100 RPM. The supernatant was removed and the cell pellet resuspended in 1×PBS at a volume equal to 10 μL per slide to be prepared (e.g. 5 slides×10 μL per slide=50 μL 1×PBS total).
For each slide to be prepared, 10 μL of the cell sample was added to a 1.5 mL centrifuge tube. The cell layer of the slide was created by first gently mixing 100 μL of the 0.5% LMPA with the 10 μL of cell sample in the tube. This mixture was then added to a pre-coated slide and a coverslip placed onto the slide to create a thin layer of the cell mixture. Slides with cell layers were then refrigerated at 4° C. for 15 minutes to solidify the gel. After this incubation, the initial coverslips were removed and an additional 150 μL of 0.5% LMPA was added to each slide. A fresh coverslip was placed onto each slide to create a thin top layer and the slides were refrigerated for another 15 minutes. After removing the coverslip, completed slides that were receiving MMS treatment were placed in a slide chamber containing warmed MEM-α media with 1 mM MMS for 10 minutes. The slide chamber was kept warm by placing it within an incubator held at 37° C. After the 10 minutes, the slides were washed with 1×PBS for 5 minutes at room temperature and then transferred to slide chambers containing the chilled lysis solution. […]

Compound | protection from MMS-induced NAD(P)H depletion [1] | protection from MMS-induced NAD(P)H depletion [2] | concentration that induces cell death [3] [mM] | optimum concentration to protect AP sites from alkaline cleavage [4] [mM] | OTX concentration with complete protection of AP sites from alkaline cleavage ([4]; electrophoresis pH 12.4) [mM] | OTX concentration with little to no protection of AP sites from alkaline cleavage ([4]; electrophoresis pH 12.4) [mM] | tail moments over the various incubation times with OTX protection ([5]; 300 mM OTX 0-4 hours at 37° C.) | tail moment with OTX protection vs 1 hour incubation without OTX ([5]; 300 mM OTX, 1 hour incubation) | tail moment, one hour incubation with OTX vs zero hour incubation control without OTX ([5]; 300 mM OTX, one hour)
NC(=O)c1cccc(N)c1 [3-aminobenzamide] | mostly protected | mostly protected |  |  |  |  |  |  | 
CON [Methoxyamine] |  |  | 20 to 30 |  |  |  |  |  | 
NOC1CCCCO1 (stereo not shown) [OTX, O-(tetrahydro-2H-pyran-2-yl)hydroxylamine] |  |  | 2 | 30 | ≥ 10 | < 1 | no significant increase in tail moments | significant decrease in tail moment | significant decrease in tail moment
